According to patent US8415156B2, “Recombinant laminin-521” (Biolamina AB, priority 2010, dated 2013):

Test system: Akt and MEK1
Test: Western blot of pathway inhibitor treated cells
Format: cell-based, human
Settings: cells collected one hour after plating on LN-521, vs DMSO control
Excerpt: InSolutionTM LY 294002 (a specific […]), InSolutionTM Wortmannin (a specific PI3K inhibitor), and InSolutionTM 98059 (a specific MEK1/Erk inhibitor) were purchased from Calbiochem. Antibodies to phospho-Akt (#4060), total-Akt (#9272), phospho-Erk (#9101), and total-Erk (#9102) were obtained from Cell Signaling Technology. PathScan Phospho-Akt1 sandwich ELISA kit (#7160), PathScan total Akt1 sandwich ELISA kit (#7170), PathScan Phospho-Akt2 sandwich ELISA kit (#7048), and PathScan total Akt2 sandwich ELISA kit (#7046) were also purchased from Cell Signaling Technology. Antibodies to Calnexin (#ab10286) were obtained from Abcam. Function blocking antibodies to various integrin subunits, mouse isotype antibodies, and α-dystroglycan were purchased from Millipore. Since function blocking antibodies to αV (MAB1980) and α6 (MAB1378) were presented in a solution with sodium azide, before the inhibition of survival experiment all the antibodies to alpha integrin subunits were dialyzed thrice against O3 medium for 2 hours each time. Antibodies to Lutheran receptor and α-fetoprotein, as well as rat isotype control antibodies were obtained from R&D Systems. Antibodies to Oct4, Nanog, SSEA-4, smooth muscle actin and MAP-2 were purchased from Millipore. […] For the densitometry analysis the films were scanned at 2,400 dpi and analyzed by the […]5500 program (1D-Multi Line densitometry mode). […]

COc1cccc(-c2cc(=O)c3ccccc3o2)c1N [PD 98059]
efficacy of inhibitor treatment by western blot: confirmed
